Reference: US3957978A, “Phosphonium anti-parasitics” (American Cyanamid Company, priority 1975, dated 1976)

System: Nematospiroides dubius
Assay: Evaluation (Efficacy) Test in Mice, Nematospiroides dubius
Type: in vivo
Details: Heligmosomoides polygyrus, po, read-out: % Efficacy N.d.
Source text: The primary target parasite of this test is Nematospiroides dubius (Family: Heligmosomidae), which is phylogenetically related to certain economically important parasites of domestic and farm animals. Mice are orally inoculated with 20 to 30 infective N. dubius larvae. Mixed infections are obtained by subsequent inoculation with Aspicularis tetraptera and Hymenolepis nana. Eighteen days after inoculation the mice are divided into groups of four. Each group receives one compound at a specified dose rate, either as a single gavage dose or fed continually in the feed. Four groups of five mice each are utilized as infected, untreated controls. […] Those mice receiving single oral doses (SOD) or a single subcutaneous injection (Sc) of 5 mg./kg. to 100 mg./kg. of animal body weight of the compound under test are treated 22 days after inoculation. Eight days after start of treatment (drug diet) and 4 days post treatment (single dose SOD or Sc), the mice are necropsied, the worms recovered and counted. Percent efficacy for Nematospiroides is calculated using the formula: % Efficacy Equals [formula]
The diet used in the test procedures is a standard commercial mouse chow containing meat and bone meal, dried skimmed milk, wheat germ meal, fish meal, animal liver meal, dried beet pulp, ground extended corn, oat middlings, soybean meal, dehydrated alfalfa meal, cane molasses. animal fat preserved with BHA, vitamin B-12 supplement, calcium panthotenate, choline chloride, folic acid, riboflavin supplement, brewer's dried yeast, thiamine, niacin, vitamin A supplement, D activated plant sterol, vitamin E supplement, dicalcium phosphate, iodized salt, ferric ammonium citrate, iron oxide, manganous oxide, cobalt carbonate, copper oxide and zinc oxide; and the desired level of test compound.
When the drug is administered as a single oral dose, the drug is weighed and suspended in 0.2% agar, thoroughly mixed and orally introduced at the required volume.

`CCCC(=P(c1ccccc1)(c1ccccc1)c1ccccc1)[P+](c1ccccc1)(c1ccccc1)c1ccccc1` [Type II, R2 n-Propyl, X I] was tested, and the inhibition in vivo at 0.003 % (168 h, drug diet, 0.003 % diet, 7 days) was 50%, the inhibition in vivo at 0.006 % (168 h, drug diet, 0.006 % diet, 7 days) was 86% and the inhibition in vivo at 0.0125 % (168 h, drug diet, 0.0125 % diet, 7 days) was 88%. For the same compound, the inhibition in vivo at 0.025 % (168 h, drug diet, 0.025 % diet, 7 days) was 100%, the inhibition in vivo at 10 mg/kg (single oral dose, 10 mg/kg) was 42% and the inhibition in vivo at 25 mg/kg (single oral dose, 25 mg/kg) was 63%. It also gave an inhibition in vivo at 50 mg/kg (single oral dose, 50 mg/kg) of 100%.
